Calls of active or inactive are those of the source. Cut-off read from the data, not from the text of the source, for most assays here: active = IC50 of 10 µM or less and inactive = more.
Key:
[1] = molecular target: ADP-ribosylation factor GTPase-activating protein 1 (Rattus norvegicus, UniProt Q62848); experiment: Fluorescence polarization-based biochemical high throughput dose response screening assay to identify inhibitors of ADP-ribosylation factor GTPase activating protein 1 (ARFGAP1).; type: functional
Protein Wnt-3a = Protein Wnt-3a (Mus musculus, UniProt P27467); experiment: Wnt3a-driven reporter signaling inhibition, dose response, selectivity assay for Gli-SUFU antagonist project, Wnt-LIGHT cells, luminescence (AID 651570); type: functional; conditions: read-out: IC50_Mean;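 note: Wnt-LIGHT reporter cells stimulated with conditioned medium from Wnt3a-producing cells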
Orexin receptor type 2 [2] = molecular target: T1, Orexin receptor type 2 (Homo sapiens, UniProt O43614); experiment: Counterscreen assay for antagonists of the orexin 1 receptor (OX1R; HCRTR1): Fluorescence-based cell-based dose response assay for antagonists of the orexin 2 receptor (OX2R; HCRTR2), run by assay provider.; type: functional
T1 sequence (O43614 whole entry): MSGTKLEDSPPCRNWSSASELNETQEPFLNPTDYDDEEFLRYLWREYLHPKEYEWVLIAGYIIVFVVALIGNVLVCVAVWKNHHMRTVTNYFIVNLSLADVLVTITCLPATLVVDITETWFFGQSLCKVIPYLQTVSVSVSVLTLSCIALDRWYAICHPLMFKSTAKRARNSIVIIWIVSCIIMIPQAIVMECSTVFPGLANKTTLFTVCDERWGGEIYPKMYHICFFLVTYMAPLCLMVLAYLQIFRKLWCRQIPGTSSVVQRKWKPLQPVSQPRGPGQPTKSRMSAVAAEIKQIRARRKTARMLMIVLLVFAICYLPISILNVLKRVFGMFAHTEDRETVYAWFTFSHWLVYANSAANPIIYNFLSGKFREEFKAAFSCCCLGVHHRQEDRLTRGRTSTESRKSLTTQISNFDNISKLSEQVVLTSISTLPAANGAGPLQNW

[3] = Luminescence Cell-Based Dose Retest to Confirm Inhibitors of Cancer Stem Cells. [Related pubchem assays (depositor defined):AID2717, AID2721]; type: functional; conditions: Homo sapiens
[4] = (§1) Counterscreen for antagonists of the orexin 1 receptor (OX1R; HCRTR1): Fluorescence-based cell-based high throughput dose response assay to identify antagonists of the parental CHO cell line. [Related pubchem assays (depositor defined):AID434989, AID435008, AID463079, AID485270, AID492963, AID492964, AID492965, AID493232, AID504699, AID504701]; type: functional
Orexin receptor type 2 [5] = molecular target: T1, Orexin receptor type 2; experiment: Counterscreen assay for antagonists of the orexin 1 receptor (OX1R; HCRTR1): Homogeneous Time Resolved Fluorescence (HTRF)-based cell-based dose response assay for antagonists of the orexin 2 receptor (OX2R; HCRTR2), run by assay provider.; type: functional
[6] = molecular target: T2, Orexin/Hypocretin receptor type 1 (Homo sapiens, UniProt O43613); experiment: (§2) Fluorescence-based cell-based high throughput dose response assay for antagonists of the orexin 1 receptor (OX1R; HCRTR1). [Related pubchem assays (depositor defined):AID434989, AID435008, AID463079, AID485270, AID492963, AID492964, AID492965, AID493232, AID504717, AID504718]; type: functional
T2 sequence (O43613 whole entry): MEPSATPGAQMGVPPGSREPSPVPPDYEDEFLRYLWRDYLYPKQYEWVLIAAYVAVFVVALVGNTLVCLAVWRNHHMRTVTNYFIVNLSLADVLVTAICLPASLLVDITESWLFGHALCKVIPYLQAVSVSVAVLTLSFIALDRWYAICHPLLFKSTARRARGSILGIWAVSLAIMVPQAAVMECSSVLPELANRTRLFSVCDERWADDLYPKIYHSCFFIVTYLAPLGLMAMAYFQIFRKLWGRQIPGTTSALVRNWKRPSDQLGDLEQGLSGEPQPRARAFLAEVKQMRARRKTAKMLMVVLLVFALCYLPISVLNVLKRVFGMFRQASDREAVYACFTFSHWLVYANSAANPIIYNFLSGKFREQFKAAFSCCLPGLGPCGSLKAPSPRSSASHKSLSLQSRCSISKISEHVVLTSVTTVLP

CHO-K1 = experiment: as §1, with “Homogeneous time resolved fluorescence (HTRF)-based” for “Fluorescence-based”, “cell-based” for “cell-based high throughput”, “CHO-K1” for “CHO”; type: functional; conditions: Cricetulus griseus;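 note: potency for inhibition of ATP-stimulated IP1 production as antagonists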
[7] = molecular target: T2, Orexin/Hypocretin receptor type 1; experiment: as §2, with “Homogeneous Time Resolved Fluorescence (HTRF)-based” for “Fluorescence-based”; type: functional
[8] = Counterscreen for inhibitors of Trypanosoma brucei methionyl tRNA synthetase (MetRS): Luminescence-based cell-based high throughput dose response assay to identify compounds that are cytotoxic to Jurkat human T lymphocyte cells.; type: functional
[9] = molecular target: T3, Methionyl-tRNA synthetase, putative (Trypanosoma brucei brucei, UniProt Q38C91); type: functional, Trypanosoma brucei brucei strain 927/4 GUTat10.1
T3 sequence (Q38C91 whole entry): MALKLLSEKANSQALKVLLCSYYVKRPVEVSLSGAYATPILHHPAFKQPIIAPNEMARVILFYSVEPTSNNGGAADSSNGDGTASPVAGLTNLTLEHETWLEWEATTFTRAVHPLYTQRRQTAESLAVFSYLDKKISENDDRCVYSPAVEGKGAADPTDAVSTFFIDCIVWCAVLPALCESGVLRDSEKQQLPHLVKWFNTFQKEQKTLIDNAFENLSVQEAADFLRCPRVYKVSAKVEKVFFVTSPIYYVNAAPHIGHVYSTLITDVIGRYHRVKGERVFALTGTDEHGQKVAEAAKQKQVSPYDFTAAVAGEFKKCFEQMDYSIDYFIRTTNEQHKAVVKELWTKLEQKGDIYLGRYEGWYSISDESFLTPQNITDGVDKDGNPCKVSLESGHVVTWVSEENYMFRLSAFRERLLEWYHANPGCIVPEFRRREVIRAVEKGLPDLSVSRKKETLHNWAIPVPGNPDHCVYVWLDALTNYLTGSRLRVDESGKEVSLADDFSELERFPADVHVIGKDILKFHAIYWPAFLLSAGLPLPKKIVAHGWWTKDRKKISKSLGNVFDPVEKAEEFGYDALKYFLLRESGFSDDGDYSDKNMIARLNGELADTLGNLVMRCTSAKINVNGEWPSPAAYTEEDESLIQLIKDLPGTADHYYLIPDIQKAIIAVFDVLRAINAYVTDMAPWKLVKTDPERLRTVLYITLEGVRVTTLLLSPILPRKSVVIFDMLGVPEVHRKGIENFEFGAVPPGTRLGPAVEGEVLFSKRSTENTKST

[10] = molecular target: T3, Methionyl-tRNA synthetase, putative; type: functional, Trypanosoma brucei brucei strain 927/4 GUTat10.1; remark: listed apart in the source
Steroidogenic factor 1 = Steroidogenic factor 1 (Homo sapiens, UniProt Q13285); experiment: Counterscreen for inverse agonists of the liver receptor homolog-1 (LRH-1; NR5A2): Luminescence-based cell-based high throughput dose response assay to identify inverse agonists of the Steroidogenic Factor 1 Nuclear Receptor (SF1; NR5A1).; type: functional
[11] = molecular target: Nuclear receptor subfamily 5 group A member 2 (Homo sapiens, UniProt O00482); type: functional, cell-based;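 note: HEK293T cells transfected with LRH-1 and a StAR promoter luciferase reporter; potency for inhibitors that lower LRH-1 driven reporter light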
[12] = StAR promoter reporter inhibition counter-screen, dose response, counter-screen for LRH-1 inverse agonist project, cell-based, luminescence, luciferase reporter (AID 651969); type: functional
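Throughout, for AC50: cells exposed to compound for roughly 70 hours or longer before luminescence read.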

Chain of ADP-ribosylation factor GTPase-activating protein 1 (Q62848 whole entry): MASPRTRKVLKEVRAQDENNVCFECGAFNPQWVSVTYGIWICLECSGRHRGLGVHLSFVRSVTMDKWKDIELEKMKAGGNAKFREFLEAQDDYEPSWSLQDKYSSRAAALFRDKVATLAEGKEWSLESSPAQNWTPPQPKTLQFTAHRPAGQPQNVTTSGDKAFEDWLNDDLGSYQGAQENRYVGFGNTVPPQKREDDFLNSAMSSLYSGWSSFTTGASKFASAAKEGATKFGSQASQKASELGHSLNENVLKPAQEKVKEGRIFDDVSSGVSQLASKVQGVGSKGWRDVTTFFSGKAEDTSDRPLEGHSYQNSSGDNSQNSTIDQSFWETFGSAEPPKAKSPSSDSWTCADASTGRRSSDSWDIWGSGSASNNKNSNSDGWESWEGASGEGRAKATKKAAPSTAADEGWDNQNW
Chain of Protein Wnt-3a (P27467 whole entry): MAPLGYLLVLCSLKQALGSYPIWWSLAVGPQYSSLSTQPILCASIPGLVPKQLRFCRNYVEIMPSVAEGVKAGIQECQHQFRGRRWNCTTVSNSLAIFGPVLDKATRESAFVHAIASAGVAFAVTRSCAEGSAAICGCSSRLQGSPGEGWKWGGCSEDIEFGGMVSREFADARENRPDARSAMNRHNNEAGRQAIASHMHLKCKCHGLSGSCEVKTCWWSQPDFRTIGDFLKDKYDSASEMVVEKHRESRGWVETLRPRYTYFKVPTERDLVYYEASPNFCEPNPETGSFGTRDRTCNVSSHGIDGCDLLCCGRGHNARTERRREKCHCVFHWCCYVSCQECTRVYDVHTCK
Chain of Nuclear receptor subfamily 5 group A member 2 (O00482 whole entry): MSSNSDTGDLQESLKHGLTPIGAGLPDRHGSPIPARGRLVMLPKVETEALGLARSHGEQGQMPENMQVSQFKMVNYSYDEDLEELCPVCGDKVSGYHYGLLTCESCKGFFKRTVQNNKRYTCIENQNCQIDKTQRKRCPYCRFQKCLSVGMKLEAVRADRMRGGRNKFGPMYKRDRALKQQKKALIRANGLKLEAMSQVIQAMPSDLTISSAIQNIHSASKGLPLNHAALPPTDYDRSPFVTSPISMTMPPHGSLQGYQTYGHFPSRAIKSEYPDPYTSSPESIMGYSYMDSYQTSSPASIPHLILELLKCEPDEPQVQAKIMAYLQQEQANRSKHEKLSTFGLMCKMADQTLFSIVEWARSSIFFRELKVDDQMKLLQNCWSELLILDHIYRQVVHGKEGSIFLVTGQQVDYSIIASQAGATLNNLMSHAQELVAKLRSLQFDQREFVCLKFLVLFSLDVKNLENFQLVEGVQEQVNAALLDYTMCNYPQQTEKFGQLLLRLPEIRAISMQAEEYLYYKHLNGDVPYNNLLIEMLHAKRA
Chain of Steroidogenic factor 1 (Q13285 whole entry): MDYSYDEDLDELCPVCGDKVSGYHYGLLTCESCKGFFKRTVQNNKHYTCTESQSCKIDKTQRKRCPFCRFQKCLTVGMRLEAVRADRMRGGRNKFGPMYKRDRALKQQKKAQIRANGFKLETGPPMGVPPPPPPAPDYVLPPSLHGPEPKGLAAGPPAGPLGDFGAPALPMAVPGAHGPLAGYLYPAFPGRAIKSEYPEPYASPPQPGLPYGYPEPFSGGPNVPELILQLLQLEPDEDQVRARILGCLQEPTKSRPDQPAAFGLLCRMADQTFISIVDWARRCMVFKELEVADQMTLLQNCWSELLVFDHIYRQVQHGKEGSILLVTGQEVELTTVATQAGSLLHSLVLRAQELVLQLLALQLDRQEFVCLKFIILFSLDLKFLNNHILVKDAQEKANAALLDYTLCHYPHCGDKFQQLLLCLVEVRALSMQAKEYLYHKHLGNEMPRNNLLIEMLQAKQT

Row | Structure (SMILES) | IC50 (Orexin receptor type 2 [2]) | IC50 [4] | IC50 (Orexin receptor type 2 [5]) | IC50 [6] | IC50 (CHO-K1) | IC50 [7] | also measured
1 | COc1ccc2oc(C(=O)OCC(=O)N3CC(C)CC(C)C3)c(C)c2c1 (centres undefined) |  |  |  |  |  |  | IC50 [1]: 44.9 µM (inactive)
2 | Cc1ccc(C)c([N+]2=C3CCCCN3C(O)(c3cccs3)C2)c1 (centres undefined) |  |  |  |  |  |  | IC50 (Protein Wnt-3a): 13.2 µM (active)
3 | Cn1c2ccccc2c(=O)c2cc(C#Cc3ccccn3)ccc21 | > 88.8 µM (inactive) | > 49.7 µM (inactive) | > 50 µM (inactive) | 3.9 µM (active) | > 66.2 µM (inactive) | 0.413 µM (active) | AC50 [3]: 9.17 µM (active)
4 | CC(=O)c1ccc(N2CCN(c3ccc(C(F)(F)F)cn3)CC2)cc1 |  |  |  |  |  |  | IC50 (Protein Wnt-3a): 24.3 µM (inactive)
5 | Cc1c(C(=O)OCC(=O)NCCN2C(=O)CSC2=O)oc2c1ccc1ccccc12 | > 88.8 µM (inactive) | > 49.7 µM (inactive) | > 50 µM (inactive) | 6.78 µM (active) | > 66.2 µM (inactive) | 1.23 µM (active) | 
6 | Fc1cccc(Nc2nc3ccccc3n3cnnc23)c1 | > 88.8 µM (inactive) | > 49.8 µM (inactive) | 2.13 µM (active) | 7.59 µM (active) | > 66.3 µM (inactive) | 2.03 µM (active) | 
7 | C=CCNc1nc(NCCOC)c2sc(-c3ccccc3)cc2n1 |  |  |  |  |  |  | IC50 [1]: 101 µM (inactive)
8 | C[C@H](O)[C@@H]1CN2CCc3c([nH]c4ccccc34)[C@@H]2C[C@@H]1N(C)C(=O)Nc1cc(Cl)cc(Cl)c1 |  |  |  |  |  |  | IC50 [8]: 15.8 µM (inactive); IC50 [9]: 14.9 µM (inactive); IC50 [10]: 8.53 µM (active)
9 | CC(C)CC1(C)NC(=O)N(CC(=O)Nc2ccc3c(c2)OCCO3)C1=O (centres undefined) |  |  |  |  |  |  | IC50 (Steroidogenic factor 1): 7.12 µM (active); IC50 [11]: 42.7 µM (inactive); IC50 [12]: 35.9 µM (inactive)
